The test deals with Mus musculus. The experiment in a line: Immunostimulatory activity against ovalbumin-stimulated immune response in mouse serum assessed as ratio of IgG1 to IgG2a at 200 ug, sc measured after 7 days by ELISA. The class given is functional. On the technique in general: In an ELISA, binding on a coated surface is turned into a signal by an enzyme label.

The results in this text go back to ChEMBL document CHEMBL1153476, “Novel mannosyl derivatives of peptidoglycan monomer: Synthesis and biological evaluation of immunomodulatory properties” (2009).

With `CC(=O)N[C@@H]1[C@@H](O[C@H](C)C(=O)N[C@@H](C)C(=O)N[C@H](CCC(=O)N[C@H](CCC[C@H](N)C(N)=O)C(=O)N[C@H](C)C(=O)N[C@H](C)C(=O)O)C(N)=O)[C@H](O[C@@H]2O[C@H](CO)[C@@H](O)[C@H](O)[C@H]2NC(C)=O)[C@@H](CO)O[C@H]1O`, the Ratio turned out to be 2.6.
